# Data taken from ChEMBL document CHEMBL1129949, “Correlation of antimalarial activity of artemisinin derivatives with binding affinity with ferroprotoporphyrin IX” (J Med Chem, 1997).
# pIC50: −log10 of the molar value.
# Tested on: Plasmodium falciparum
# Experiment: Mean of EC50 values for FM3A cells/ mean of EC50 values for Plasmodium falciparum
# Type: functional, organism-based
row,Compound,pIC50
1,C[C@@H]1CC[C@H]2[C@@H](C)C(=O)O[C@@H]3O[C@@]4(C)CC[C@@H]1[C@]32OO4 [ARTEMISININ],8.30
2,"COC1O[C@@H]2OC3(C)CC[C@H]4[C@H](C)CC[C@@H](C1C)[C@@]24OO3 (single isomer, unassigned)",8.39
3,"C[C@@H]1CC[C@H]2C(Cn3ccnc3)C(O)O[C@@H]3OC4(C)CC[C@@H]1[C@]32OO4 (single isomer, unassigned)",9.41
4,CC1C(OC(=O)CCC(=O)O)O[C@@H]2O[C@]3(C)CC[C@H]4[C@H](C)CC[C@@H]1[C@@]24OO3 (some centres undefined),9.21
5,"C=C1C(=O)O[C@@H]2OC3(C)CC[C@H]4[C@H](C)CC[C@@H]1[C@@]24OO3 (single isomer, unassigned)",7.52
6,"C[C@@H]1CC[C@H]2C(CSc3ccccc3)C(=O)O[C@@H]3OC4(C)CC[C@@H]1[C@]32OO4 (single isomer, unassigned)",7.70
7,"CCOC1O[C@@H]2OC3(C)CC[C@H]4[C@H](C)CC[C@@H](C1C)[C@@]24OO3 (single isomer, unassigned)",7.62
8,"C[C@@H]1CC[C@H]2C(Cn3ccnc3)C(=O)O[C@@H]3OC4(C)CC[C@@H]1[C@]32OO4 (single isomer, unassigned)",7.49
9,"CC1C(O)O[C@@H]2OC3(C)CC[C@H]4[C@H](C)CC[C@@H]1[C@@]24OO3 (single isomer, unassigned)",8.96
